The results in this text go back to PubChem BioAssay (NCI).

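Each compound was tested at five concentrations against cells in 96-well plates for 48 hours. The concentration for 50% growth inhibition is given as GI50. The concentration for full growth arrest is given as TGI.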

Test systems include ACHN renal; SNB-75 CNS; SNB-19 CNS; SR leukemia; HCC-2998 colon; KM12 colon; COLO 205 colon; OVCAR-5 ovarian; HOP-92 NSCLC; SK-MEL-5 melanoma.
Holding throughout (test): NCI-60 cell line screen, 48 h

Regarding `CCOC(=O)c1cc2cc([N+](=O)[O-])ccc2oc1=O`, the TGI in the experiment on ACHN renal, with SNB-75 CNS, with SNB-19 CNS, with SR leukemia, in the experiment with HCC-2998 colon and in the experiment on KM12 colon was > 100 µM in each case. The TGI in the experiment on COLO 205 colon, in the experiment with OVCAR-5 ovarian, in the experiment with HOP-92 NSCLC and in the experiment with SK-MEL-5 melanoma was > 100 µM in each case.
Consider `C/C(=N\NC(=S)Nc1ccc([N+](=O)[O-])cc1S(=O)(=O)O)c1ccccn1`, for which the TGI is > 100 µM in the experiment with ACHN renal; > 100 µM in the experiment on SNB-75 CNS; 75.6 µM with SR leukemia; > 100 µM in the experiment on HCC-2998 colon; > 100 µM in the experiment on KM12 colon; > 100 µM in the experiment with COLO 205 colon. The TGI in the experiment on OVCAR-5 ovarian, with HOP-92 NSCLC and in the experiment with SK-MEL-5 melanoma was > 100 µM in each case.
For the molecule `NC(=O)c1ccc(NC(=O)c2oc3ccccc3c2-c2cnn(-c3ccccc3)c2)cc1`, the GI50 was 5.03 µM in the experiment with ACHN renal; 1.89 µM in the experiment with SNB-75 CNS; 8.98 µM in the experiment with SNB-19 CNS; > 100 µM with SR leukemia; > 100 µM with HCC-2998 colon; > 100 µM with KM12 colon. Further, the GI50 is > 100 µM in the experiment on OVCAR-5 ovarian and 1.69 µM with HOP-92 NSCLC. The TGI with ACHN renal is > 100 µM; with SNB-75 CNS, 8.31 µM; with SNB-19 CNS it was > 100 µM; with SR leukemia, > 100 µM; with HCC-2998 colon, > 100 µM; in the experiment on KM12 colon it was > 100 µM. Moreover, the TGI is > 100 µM in the experiment with OVCAR-5 ovarian and 6.46 µM with HOP-92 NSCLC.
For the molecule `ClCc1ccc(Cn2cnc3ncnc(Cl)c32)cc1`, the GI50 in the experiment with SNB-19 CNS is 1.72 µM; in the experiment with SR leukemia, 0.822 µM; in the experiment on HCC-2998 colon, 1.42 µM; in the experiment with KM12 colon, 1.66 µM; with COLO 205 colon it was 1.9 µM; in the experiment on OVCAR-5 ovarian, 6.26 µM. Further, the values for the GI50 in the experiment on HOP-92 NSCLC and in the experiment with SK-MEL-5 melanoma were 1.17 µM and 2.82 µM, respectively. For the same molecule, the TGI in the experiment with SNB-19 CNS was found to be 3.15 µM; in the experiment with SR leukemia it was 2.7 µM; in the experiment with HCC-2998 colon, 2.87 µM; with KM12 colon, 3.48 µM; in the experiment on COLO 205 colon it was 3.78 µM; in the experiment with OVCAR-5 ovarian, 19.7 µM. The TGI in the experiment on HOP-92 NSCLC amounted to 2.52 µM; in the experiment on SK-MEL-5 melanoma, 12.1 µM.
Turning to `CC(C)S(=O)(=O)n1c(N)nc2ccc(/C(=N/O)c3ccccc3)cc21`, the TGI in the experiment with ACHN renal is 57.8 µM; in the experiment on SNB-75 CNS, 47.7 µM; in the experiment with SNB-19 CNS it was > 100 µM; with SR leukemia it was 27.2 µM; in the experiment on HCC-2998 colon it was 53.2 µM; in the experiment on KM12 colon, 45.8 µM. The figures for the TGI in the experiment with COLO 205 colon, in the experiment with OVCAR-5 ovarian and in the experiment on HOP-92 NSCLC were 33.5 µM, 58.7 µM and 41.1 µM, respectively.
With `NC(=NC1C2CC3CC(C2)CC1C3)Nc1ccc(I)cc1` (stereo not given), the GI50 with ACHN renal is 2.92 µM; with SNB-75 CNS, 2.09 µM; in the experiment with SNB-19 CNS it was 4.35 µM; in the experiment on SR leukemia, 2.49 µM; with HCC-2998 colon, 1.77 µM; in the experiment on COLO 205 colon it was 1 µM. For the same molecule, the GI50 is 4.5 µM with OVCAR-5 ovarian, 1.6 µM in the experiment with HOP-92 NSCLC and 1.57 µM with SK-MEL-5 melanoma. Besides, the TGI is 9.45 µM in the experiment on ACHN renal; 15.7 µM in the experiment with SNB-75 CNS; 16.6 µM with SNB-19 CNS; 6.84 µM in the experiment on SR leukemia; 3.61 µM with HCC-2998 colon; 2.64 µM in the experiment with COLO 205 colon. Besides, the figures for the TGI in the experiment with OVCAR-5 ovarian, in the experiment with HOP-92 NSCLC and in the experiment on SK-MEL-5 melanoma were 21.7 µM, 5.21 µM and 2.95 µM, respectively.
With `COc1cc([N+](=O)[O-])c2ncccc2c1O`, the GI50 was 6.08 µM in the experiment with ACHN renal; 2.96 µM in the experiment on SNB-75 CNS; 3.19 µM in the experiment on SNB-19 CNS; 20.6 µM in the experiment with SR leukemia; 2.18 µM in the experiment with KM12 colon; 1.7 µM in the experiment on COLO 205 colon. The GI50 with OVCAR-5 ovarian is 5.09 µM; in the experiment with HOP-92 NSCLC, 47.1 µM; in the experiment with SK-MEL-5 melanoma it was 1.47 µM. Further, the TGI in the experiment on ACHN renal is > 100 µM; in the experiment with SNB-75 CNS, 17.2 µM; in the experiment on SNB-19 CNS, > 100 µM; in the experiment with SR leukemia, > 100 µM; in the experiment with KM12 colon, 7.02 µM; with COLO 205 colon, 3.46 µM. The TGI was > 100 µM in the experiment with OVCAR-5 ovarian, > 100 µM in the experiment with HOP-92 NSCLC and 2.9 µM with SK-MEL-5 melanoma.
Regarding `COc1ccc(-c2nc(N)nc(-c3cc(C)ccc3O)c2Cl)cc1`, the TGI with ACHN renal is > 100 µM; with SNB-75 CNS, 63.9 µM; in the experiment with SNB-19 CNS it was > 100 µM; in the experiment with SR leukemia, > 100 µM; with HCC-2998 colon it was > 100 µM; in the experiment with KM12 colon, > 100 µM. In addition, the TGI with COLO 205 colon, in the experiment on OVCAR-5 ovarian and with HOP-92 NSCLC was > 100 µM in each case.
